Experimental data reported in ChEMBL document CHEMBL5352412, “Discovery of 1,2-diphenylethene derivatives as human DNA topoisomerase II catalytic inhibitors and antitumor agents” (Eur J Med Chem, 2022).
“And” between values parts separate entries of the source, which are not always exact repeats. Equal values may be shown once. The source made the active and inactive calls. The rule behind the calls is not given here.

How the values were obtained:
A549 = experiment: Antiproliferative activity against human A549 cells incubated for 72 hrs by CCK8 assay; format: functional, cell-based; conditions: A549, 72 h
[1] = molecular target: T1, DNA topoisomerase 2-alpha (Homo sapiens, UniProt P11388); experiment: Inhibition of human topoisomerase 2-alpha assessed as reduction in relaxation of pBR322 DNA at 25 uM measured after 30 mins by agarose gel electrophoresis method relative to control
HCT-116 = experiment: Antiproliferative activity against human HCT-116 cells incubated for 72 hrs by CCK8 assay; format: functional, cell-based; conditions: HCT-116, 72 h
[2] = Selectivity index, ratio of IC50 for human BEAS-2B cells to IC50 for human HepG2 cells; format: toxicity; conditions: BEAS-2B cells versus HepG2 cells, read-out: Ratio IC50
[3] = molecular target: T1, DNA topoisomerase 2-alpha; experiment: Inhibition of human topoisomerase 2-alpha assessed as reduction in relaxation of pBR322 DNA at 100 uM measured after 30 mins by agarose gel electrophoresis method relative to control
Homo sapiens [4] = species on record: Homo sapiens; experiment: Selectivity index, ratio of IC50 for human CCL-226 cells to IC50 for human A549 cells
HepG2 [5] = experiment: Antiproliferative activity against human HepG2 cells incubated for 72 hrs by CCK8 assay; format: functional, cell-based
[6] = Selectivity index, ratio of IC50 for human HL-7702 cells to IC50 for human HepG2 cells; format: toxicity; conditions: HL-7702 cells versus HepG2 cells, read-out: Ratio IC50
[7] = Selectivity index, ratio of IC50 for human HL-7702 cells to IC50 for human HeLa cells; format: toxicity; conditions: HL-7702 cells versus HeLa cells, read-out: Ratio IC50
[8] = Selectivity index, ratio of IC50 for human HL-7702 cells to IC50 for human A549 cells; format: toxicity; conditions: HL-7702 cells versus A549 cells, read-out: Ratio IC50
HeLa = experiment: Antiproliferative activity against human HeLa cells incubated for 72 hrs by CCK8 assay; format: functional, cell-based
[9] = Selectivity index, ratio of IC50 for human HL-7702 cells to IC50 for human MDA-MB-231 cells; format: toxicity; conditions: HL-7702 cells versus MDA-MB-231 cells, read-out: Ratio IC50
[10] = Selectivity index, ratio of IC50 for human BEAS-2B cells to IC50 for human A549 cells; format: toxicity; conditions: BEAS-2B cells versus A549 cells, read-out: Ratio IC50
[11] = Selectivity index, ratio of IC50 for human HL-7702 cells to IC50 for human HCT-116 cells; format: toxicity; conditions: HL-7702 cells versus HCT-116 cells, read-out: Ratio IC50
[12] = Antiproliferative activity against human CCL-226 cells incubated for 72 hrs by CCK8 assay; format: toxicity, cell-based
Homo sapiens [13] = species on record: Homo sapiens; experiment: Selectivity index, ratio of IC50 for human CCL-226 cells to IC50 for human PC-3 cells
Homo sapiens [14] = species on record: Homo sapiens; experiment: Selectivity index, ratio of IC50 for human CCL-226 cells to IC50 for human HCT-116 cells
[15] = Antiproliferative activity against human BEAS-2B cells incubated for 72 hrs by CCK8 assay; format: toxicity, cell-based
[16] = Antiproliferative activity against human HL7702 cells incubated for 72 hrs by CCK8 assay; format: toxicity, cell-based; conditions: HL7702 (L02) cells
[17] = Selectivity index, ratio of IC50 for human HL-7702 cells to IC50 for human PC-3 cells; format: toxicity; conditions: HL-7702 cells versus PC-3 cells, read-out: Ratio IC50
Homo sapiens [18] = species on record: Homo sapiens; experiment: Selectivity index, ratio of IC50 for human CCL-226 cells to IC50 for human HeLa cells
PC-3 = experiment: Antiproliferative activity against human PC-3 cells incubated for 72 hrs by CCK8 assay; format: functional, cell-based; conditions: PC-3, 72 h
Homo sapiens [19] = species on record: Homo sapiens; experiment: Selectivity index, ratio of IC50 for human CCL-226 cells to IC50 for human MDA-MB-231 cells
[20] = molecular target: T1, DNA topoisomerase 2-alpha; experiment: Inhibition of human topoisomerase 2-alpha assessed as reduction in relaxation of pBR322 DNA measured after 30 mins by agarose gel electrophoresis method
[21] = Selectivity index, ratio of IC50 for human BEAS-2B cells to IC50 for human HeLa cells; format: toxicity; conditions: BEAS-2B cells versus HeLa cells, read-out: Ratio IC50
[22] = Selectivity index, ratio of IC50 for human BEAS-2B cells to IC50 for human PC-3 cells; format: toxicity; conditions: BEAS-2B cells versus PC-3 cells, read-out: Ratio IC50
DNA topoisomerase 2-beta = DNA topoisomerase 2-beta (Homo sapiens, UniProt Q02880); experiment: Inhibition of human topoisomerase 2-beta assessed as reduction in relaxation of pBR322 DNA measured after 30 mins by agarose gel electrophoresis method
[23] = Selectivity index, ratio of IC50 for human BEAS-2B cells to IC50 for human MDA-MB-231 cells; format: toxicity; conditions: BEAS-2B cells versus MDA-MB-231 cells, read-out: Ratio IC50
Homo sapiens [24] = species on record: Homo sapiens; experiment: Selectivity index, ratio of IC50 for human CCL-226 cells to IC50 for human HepG2 cells
MDA-MB-231 = experiment: Antiproliferative activity against human MDA-MB-231 cells incubated for 72 hrs by CCK8 assay; format: functional, cell-based
[25] = Selectivity index, ratio of IC50 for human BEAS-2B cells to IC50 for human HCT-116 cells; format: toxicity; conditions: BEAS-2B cells versus HCT-116 cells, read-out: Ratio IC50
[26] = molecular target: T1, DNA topoisomerase 2-alpha; experiment: Poison activity at human topoisomerase 2-alpha assessed as linear DNA formation at 100 to 200 microM; conditions: dose 100-200 µM
[27] = molecular target: T1, DNA topoisomerase 2-alpha; experiment: Inhibition of human topoisomerase 2-alpha assessed as DNA intercalation at 100 to 200 uM using pBR322 DNA as substrate measured after 30 mins by agarose gel electrophoresis analysis; conditions: dose 100-200 µM
HepG2 [28] = experiment: Upregulation of gamma-H2AX level in human HepG2 cells incubated for 4 hrs by Western blotting analysis; format: functional, cell-based
[29] = molecular target: T1, DNA topoisomerase 2-alpha; experiment: Inhibition of human topoisomerase 2-alpha using pBR322 DNA as substrate incubated for 30 mins in presence of 0.5 to 5 mM ATP (reference value: 2.9 microM)
[30] = molecular target: T1, DNA topoisomerase 2-alpha; experiment: Inhibition of human topoisomerase 2-alpha using pBR322 DNA as substrate incubated for 1 hr in presence of ATP by malachite green phosphate method
HepG2 [31] = experiment: Induction of apoptosis in human HepG2 cells assessed as necrotic cells at 5 uM incubated for 24 hrs by annexin-V FITC and PI staining based flow cytometry analysis (reference value: 0.2%); format: functional
HepG2 [32] = experiment: Induction of cell cycle arrest in human HepG2 cells assessed as accumulation of cells at S phase at 1 uM incubated for 24 hrs by PI staining based flow cytometry analysis (reference value: 28.2%); format: functional
HepG2 [33] = experiment: Induction of apoptosis in human HepG2 cells assessed as early apoptotic cells at 5 uM incubated for 24 hrs by annexin-V FITC and PI staining based flow cytometry analysis (reference value: 3.7%); format: functional
[34] = Toxicity in C57BL/6J mouse assessed as animal death at 500 mg/kg administered via gavage twice at day 1 and measured for 7 days; format: organism-based; conditions: in vivo, po, time 7 day, read-out: Activity
HepG2 [35] = experiment: Induction of cell cycle arrest in human HepG2 cells assessed as accumulation of cells at G2/M phase at 1 uM incubated for 24 hrs by PI staining based flow cytometry analysis (reference value: 17.5%); format: functional
HepG2 [36] = experiment: Induction of cell cycle arrest in human HepG2 cells assessed as accumulation of cells at G1 phase at 1 uM incubated for 24 hrs by PI staining based flow cytometry analysis (reference value: 54%); format: functional
HepG2 [37] = experiment: Induction of apoptosis in human HepG2 cells assessed as late apoptotic cells at 5 uM incubated for 24 hrs by annexin-V FITC and PI staining based flow cytometry analysis (reference value: 2.3%); format: functional
[38] = Toxicity in C57BL/6J mouse assessed as change in body weight at 500 mg/kg administered via gavage twice at day 1 and measured for 7 days; format: organism-based; conditions: in vivo, po, 168 h, time 7 day
HepG2 [39] = experiment: Induction of apoptosis in human HepG2 cells assessed as viable cells at 5 uM incubated for 24 hrs by annexin-V FITC and PI staining based flow cytometry analysis (reference value: 93.8%); format: functional; conditions: read-out: Activity

T1 sequence (P11388 whole entry): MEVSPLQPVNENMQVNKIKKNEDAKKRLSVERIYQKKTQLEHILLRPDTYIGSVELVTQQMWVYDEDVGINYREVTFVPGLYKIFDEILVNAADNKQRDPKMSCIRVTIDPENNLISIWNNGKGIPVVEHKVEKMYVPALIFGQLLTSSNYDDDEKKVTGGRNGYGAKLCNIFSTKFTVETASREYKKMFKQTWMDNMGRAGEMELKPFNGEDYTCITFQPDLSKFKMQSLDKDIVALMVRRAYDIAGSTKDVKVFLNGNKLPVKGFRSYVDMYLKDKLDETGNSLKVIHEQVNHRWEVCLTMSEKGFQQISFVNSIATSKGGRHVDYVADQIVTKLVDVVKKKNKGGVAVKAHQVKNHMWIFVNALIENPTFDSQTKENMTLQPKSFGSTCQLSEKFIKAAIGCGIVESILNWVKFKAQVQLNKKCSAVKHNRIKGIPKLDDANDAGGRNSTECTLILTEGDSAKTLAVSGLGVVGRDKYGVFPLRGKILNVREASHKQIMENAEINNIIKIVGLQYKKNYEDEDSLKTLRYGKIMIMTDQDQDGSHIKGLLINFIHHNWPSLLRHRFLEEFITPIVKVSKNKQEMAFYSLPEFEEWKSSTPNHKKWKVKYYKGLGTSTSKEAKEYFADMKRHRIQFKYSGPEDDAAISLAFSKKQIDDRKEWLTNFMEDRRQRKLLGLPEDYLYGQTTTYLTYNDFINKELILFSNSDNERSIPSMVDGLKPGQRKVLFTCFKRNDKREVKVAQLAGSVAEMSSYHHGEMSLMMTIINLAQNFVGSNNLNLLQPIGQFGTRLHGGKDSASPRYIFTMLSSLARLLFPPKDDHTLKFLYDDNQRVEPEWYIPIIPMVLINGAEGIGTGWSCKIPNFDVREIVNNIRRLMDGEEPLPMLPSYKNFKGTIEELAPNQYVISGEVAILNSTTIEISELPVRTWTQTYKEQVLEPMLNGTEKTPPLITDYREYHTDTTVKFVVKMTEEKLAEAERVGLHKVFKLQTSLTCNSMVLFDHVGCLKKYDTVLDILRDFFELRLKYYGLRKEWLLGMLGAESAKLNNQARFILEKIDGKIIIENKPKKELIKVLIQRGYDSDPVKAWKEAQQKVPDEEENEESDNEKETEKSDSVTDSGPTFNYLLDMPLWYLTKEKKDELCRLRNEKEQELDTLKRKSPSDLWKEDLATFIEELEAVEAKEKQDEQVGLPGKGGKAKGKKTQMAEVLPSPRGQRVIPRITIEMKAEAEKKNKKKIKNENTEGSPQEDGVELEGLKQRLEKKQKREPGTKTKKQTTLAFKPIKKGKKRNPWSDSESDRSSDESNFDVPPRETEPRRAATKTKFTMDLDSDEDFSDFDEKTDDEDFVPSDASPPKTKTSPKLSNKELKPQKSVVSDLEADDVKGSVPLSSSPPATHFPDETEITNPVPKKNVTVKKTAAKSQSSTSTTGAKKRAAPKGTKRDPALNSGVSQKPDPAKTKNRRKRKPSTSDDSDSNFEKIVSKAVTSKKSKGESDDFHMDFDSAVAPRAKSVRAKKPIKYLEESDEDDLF
Chain of DNA topoisomerase 2-beta (Q02880 whole entry): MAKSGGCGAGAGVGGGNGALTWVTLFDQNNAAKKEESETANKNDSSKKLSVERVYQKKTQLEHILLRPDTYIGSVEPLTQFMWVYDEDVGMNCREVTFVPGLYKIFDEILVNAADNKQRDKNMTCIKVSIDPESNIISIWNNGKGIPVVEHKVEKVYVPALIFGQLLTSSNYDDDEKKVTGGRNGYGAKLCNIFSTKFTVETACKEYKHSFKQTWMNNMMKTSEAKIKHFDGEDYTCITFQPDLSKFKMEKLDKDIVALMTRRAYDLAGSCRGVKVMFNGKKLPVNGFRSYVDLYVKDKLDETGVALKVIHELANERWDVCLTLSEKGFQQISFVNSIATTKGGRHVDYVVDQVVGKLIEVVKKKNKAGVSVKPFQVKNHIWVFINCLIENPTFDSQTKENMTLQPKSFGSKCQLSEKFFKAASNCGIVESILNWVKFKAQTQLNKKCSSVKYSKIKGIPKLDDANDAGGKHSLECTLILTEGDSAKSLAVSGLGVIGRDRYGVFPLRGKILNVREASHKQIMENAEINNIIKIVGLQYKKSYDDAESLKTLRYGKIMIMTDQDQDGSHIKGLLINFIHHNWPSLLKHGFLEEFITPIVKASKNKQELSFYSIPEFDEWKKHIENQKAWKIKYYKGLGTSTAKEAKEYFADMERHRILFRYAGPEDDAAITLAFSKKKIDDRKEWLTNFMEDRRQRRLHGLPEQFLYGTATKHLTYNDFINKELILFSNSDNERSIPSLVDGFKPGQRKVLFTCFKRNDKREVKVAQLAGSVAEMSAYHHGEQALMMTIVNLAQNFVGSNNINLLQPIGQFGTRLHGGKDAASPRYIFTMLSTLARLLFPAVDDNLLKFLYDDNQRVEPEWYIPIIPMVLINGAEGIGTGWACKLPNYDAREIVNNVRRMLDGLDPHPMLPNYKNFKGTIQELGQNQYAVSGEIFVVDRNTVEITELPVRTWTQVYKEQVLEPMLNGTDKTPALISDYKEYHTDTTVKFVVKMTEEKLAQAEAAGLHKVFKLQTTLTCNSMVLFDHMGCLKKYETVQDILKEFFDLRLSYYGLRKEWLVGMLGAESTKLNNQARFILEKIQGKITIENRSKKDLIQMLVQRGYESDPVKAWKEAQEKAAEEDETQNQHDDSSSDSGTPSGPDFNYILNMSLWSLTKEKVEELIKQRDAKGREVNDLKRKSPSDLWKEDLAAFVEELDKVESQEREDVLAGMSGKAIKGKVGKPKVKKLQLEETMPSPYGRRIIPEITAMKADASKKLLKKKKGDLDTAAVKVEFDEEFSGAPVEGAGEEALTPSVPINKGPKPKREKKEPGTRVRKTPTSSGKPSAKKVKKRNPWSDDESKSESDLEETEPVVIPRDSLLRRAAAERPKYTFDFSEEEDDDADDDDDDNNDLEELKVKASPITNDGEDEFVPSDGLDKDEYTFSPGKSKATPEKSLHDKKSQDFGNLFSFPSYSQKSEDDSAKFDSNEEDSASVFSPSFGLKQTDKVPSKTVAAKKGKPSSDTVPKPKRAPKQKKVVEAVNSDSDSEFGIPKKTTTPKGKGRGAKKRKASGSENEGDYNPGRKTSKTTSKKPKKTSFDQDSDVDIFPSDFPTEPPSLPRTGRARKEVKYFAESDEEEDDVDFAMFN

| SMILES | IC50 (A549) | inhibition [1] | IC50 (HCT-116) | selectivity ratio [2] | inhibition [3] | Ratio IC50 (Homo sapiens [4]) | IC50 (HepG2 [5]; Homo sapiens, HepG2, 72 h) | selectivity ratio [6] | selectivity ratio [7] | selectivity ratio [8] | IC50 (HeLa) | selectivity ratio [9] | selectivity ratio [10] | selectivity ratio [11] | IC50 at 72 h [12] | Ratio IC50 (Homo sapiens [13]) | IC50 at 72 h [15] | IC50 at 72 h [16] | IC50 (PC-3) | IC50 (MDA-MB-231; Homo sapiens, MDA-MB-231, 72 h) | further results |
| --- | --- | --- | --- | --- | --- | --- | --- | --- | --- | --- | --- | --- | --- | --- | --- | --- | --- | --- | --- | --- | --- |
| O=C(/C=C/c1ccccc1)Nc1ccc(/C=C/c2cc(O)cc(O)c2)cc1 | 4.1 µM | 71.2% and 61.6% | 2.1 µM | > 9.2 | 82.6% and 76.1% | > 9.2 | 2.4 µM | > 9.2 | > 9.2 | > 9.2 | 1.9 µM | > 9.2 | > 9.2 | > 9.2 | > 50 µM | > 9.2 | > 50 µM | 37.8 µM | 2.3 µM | 4.1 µM | IC50 (HepG2 [5]; hepg2): 2.9 µM; Ratio IC50 (Homo sapiens [14]): > 9.2; selectivity ratio [17]: > 9.2; Ratio IC50 (Homo sapiens [18]): > 9.2; Ratio IC50 (Homo sapiens [19]): > 9.2; IC50 [20]: 16.6 µM; selectivity ratio [21]: > 9.2; selectivity ratio [22]: > 9.2; IC50 (DNA topoisomerase 2-beta): 195 µM; selectivity ratio [23]: > 9.2; Ratio IC50 (Homo sapiens [24]): > 9.2; IC50 (MDA-MB-231; mda-mb-231): 3.6 µM; selectivity ratio [25]: > 9.2 |
| O=C(/C=C/c1ccccc1)Nc1ccc(-c2ccc3cc(O)ccc3c2)cc1 | 1 µM | 86.2% | 0.6 µM | > 28.1 | 81% | > 28.1 | 0.7 µM | > 28.1 | > 28.1 | > 28.1 | 0.5 µM | > 28.1 | > 28.1 | > 28.1 | > 50 µM | > 28.1 | 26.9 µM | > 50 µM | 0.9 µM | 0.8 µM | Activity [26]: inactive; inhibition [27]: inactive; Ratio IC50 (Homo sapiens [14]): > 28.1; selectivity ratio [17]: > 28.1; Ratio IC50 (Homo sapiens [18]): > 28.1; Activity (HepG2 [28]): inactive; Ratio IC50 (Homo sapiens [19]): > 28.1; IC50 [20]: 3.3 µM; IC50 [29]: 8.6 µM; selectivity ratio [21]: > 28.1; selectivity ratio [22]: > 28.1; IC50 (DNA topoisomerase 2-beta): 17.2 µM; selectivity ratio [23]: > 28.1; Ratio IC50 (Homo sapiens [24]): > 28.1; inhibition [30]: Dose-Dependent Effect; selectivity ratio [25]: > 28.1 |
| COc1cc([C@@H]2c3cc4c(cc3[C@@H](O[C@@H]3O[C@@H]5CO[C@@H](C)O[C@H]5[C@H](O)[C@H]3O)[C@H]3COC(=O)[C@H]23)OCO4)cc(OC)c1O [ETOPOSIDE] | 15.1 µM | – | 2.4 µM | – | 43.3% | – | 8.1 µM | – | – | – | 1.5 µM | – | – | – | 20.8 µM | – | 21 µM | 39.1 µM | 3 µM | 5.6 µM | Activity ([26]; filed as activator): Active; inhibition [27]: inactive; Activity (HepG2 [31]): 0.6%; Activity (HepG2 [32]): 73.7%; Activity (HepG2 [33]): 10.7%; mortality at 168 h [34]: 33.3%; Activity (HepG2 [35]): 25.2%; Activity (HepG2 [36]): 1.1%; Activity (HepG2 [28]): Active; Activity (HepG2 [37]): 11.8%; Activity [38]: Toxic; viability at 5 µM (HepG2 [39]): 76.9% |
